Assay results as given in ChEMBL document CHEMBL5154820 (Eur J Med Chem, 2022).

Tests used:
[1] = Acute toxicity against ICR mouse assessed as morphological changes in lung at 1000 mg/kg, ip measured after 14 days by H and E staining method; assay type: organism-based; conditions: in vivo, 336 h, time 14 day
[2] = Acute toxicity in ICR mouse assessed as median lethal dose administered intraperitoneally upto 14 days; conditions: in vivo, route ip, time < 14 day
[3] = Nephrotoxicity in BABL/c mouse assessed as increased uric acid level at 60 mg/kg, ip administered daily for 21 days relative to vehicle; assay type: toxicity, organism-based; conditions: in vivo, 504 h, time 21 day
[4] = Toxicity against BABL/c mouse assessed as morphological changes in liver at 30 mg/kg, ip administered daily for 21 days followed by addition of 3 mg/kg DDP for every 2 days by H and E staining method; assay type: organism-based; conditions: in vivo, 504 h, time 21 day
HeLa [5] = assay: Antitumour activity against human HeLa cells xenografted in BABL/c mouse assessed as reduction in tumor weight at 60 mg/kg, ip administered daily for 21 days ( Rvb = 3.36 g); assay type: functional; conditions: time 21 day
[6] = Toxicity against BABL/c mouse assessed as morphological changes in spleen at 30 to 60 mg/kg, ip administered daily for 21 days by H and E staining method; assay type: organism-based; conditions: in vivo, 504 h, dose 30-60 mg/kg, time 21 day
[7] = Resistant factor, ratio of IC50 for antiproliferative activity against human HeLa/DDP cells to IC50 for human HeLa cells; assay type: functional
[8] = Cmax in C57 nude mouse at 30 mg/kg, ip measured at 0.083 to 24 hrs by LC/MS/MS analysis; assay type: ADME, organism-based; parameters: dose 30 mg/kg, time 0.083-24 hrs, route ip; conditions: in vivo
HeLa [9] = assay: Induction of cell cycle arrest in human HeLa cells assessed as accumulation of cells at G2/M phase at 0.1 uM after 24 hrs by propidium iodide staining based flow cytometric analysis (reference value: 20.3%); assay type: functional
HeLa [10] = assay: Induction of cell cycle arrest in human HeLa cells assessed as 4N cells at 0.4 uM measured after 24 hrs by propidium iodide staining based flow cytometric analysis analysis ( Rvb = 20.3%); assay type: functional
[11] = Toxicity against BABL/c mouse assessed as morphological changes in spleen at 30 mg/kg, ip administered daily for 21 days followed by addition of 3 mg/kg DDP for every 2 days by H and E staining method; assay type: organism-based; conditions: in vivo, 504 h, time 21 day
hERG (KCNH2) = hERG (KCNH2) (Homo sapiens, UniProt Q12809); assay: Inhibition of human ERG expressed in CHO cells at 40 uM with holding potential of -80 mV by whole cell patch clamp assay relative to control; assay type: toxicity, cell-based; conditions: CHO cells that express hERG
Tubulin (Sus scrofa) = Tubulin (Sus scrofa) (UniProt P02554+P02550); assay: Inhibition of pig brain tubulin polymerization at 3 uM by spectrophotometer analysis relative to control; parameters: scale not given: the % may be the effect or the level left; conditions: Sus scrofa domesticus
[12] = biological target: Tubulin beta (Homo sapiens) (UniProt P68371+Q9H4B7+Q13509+P04350+Q3ZCM7+P07437+Q13885+Q9BVA1+Q9BUF5+A6NNZ2); assay: Binding affinity to beta-tubulin colchicine binding site in human HeLa cells assessed as decrease of adduct formation by measuring gray value measured at 1 uM incubated for 2 hrs followed by addition of EBI measured after 1.5 hrs by EBI competition based Western blotting analysis; assay type: cell-based; conditions: time 3.5 hrs
[13] = Acute toxicity against ICR mouse assessed as morphological changes in spleen at 1000 mg/kg, ip measured after 14 days by H and E staining method; assay type: organism-based; conditions: in vivo, 336 h, time 14 day
HeLa [14] = assay: Inhibition of colony formation in human HeLa cells at 20 nM and treated for every 48 hrs with fresh medium measured after 14 days by crystal violet staining method ( Rvb = 67.3%); assay type: functional; parameters: scale not given: the % may be the effect or the level left; conditions: time 14 day
[15] = Acute toxicity against ICR mouse assessed as inflammatory cell infiltration in kidney at 1000 mg/kg, ip measured after 14 days by H and E staining method; assay type: organism-based; conditions: in vivo, 336 h, time 14 day
HeLa [16] = assay: Induction of apoptosis in human HeLa cells assessed as early apoptotic cells at 0.2 uM measured after 24 hrs by Annexin V-FITC/7-AAD staining based flow cytometric analysis (reference value: 20.8%); assay type: functional
[17] = Apparent clearance during terminal phase in C57 nude mouse at 30 mg/kg, ip measured at 0.083 to 24 hrs by LC/MS/MS analysis; assay type: ADME, organism-based; conditions: in vivo, time 0.083-24 hrs, read-out: CLz/F (converted)
[18] = Acute toxicity against ICR mouse assessed as glycogen deposition in liver at 1000 mg/kg, ip measured after 14 days by H and E staining method; assay type: organism-based; conditions: in vivo, 336 h, time 14 day
HeLa [19] = assay: Induction of cell cycle arrest in human HeLa cells assessed as < 2N cells at 0.2 uM measured after 24 hrs by propidium iodide staining based flow cytometric analysis analysis ( Rvb = 7.07%); assay type: functional
[20] = Tmax in C57 nude mouse at 30 mg/kg, ip measured at 0.083 to 24 hrs by LC/MS/MS analysis; assay type: ADME, organism-based; conditions: in vivo, time 0.083-24 hrs
HeLa [21] = assay: Antitumor activity against human HeLa cells xenografted in BABL/c mouse assessed as tumor growth inhibition at 30 mg/kg, ip administered daily for 21 days relative to control; assay type: functional; conditions: 504 h, time 21 day, read-out: TGI
HeLa [22] = assay: Induction of cell cycle arrest in human HeLa cells assessed as < 2N cells at 6 nM measured after 24 hrs by propidium iodide staining based flow cytometric analysis analysis ( Rvb = 9.32%); assay type: functional
HeLa [23] = assay: Induction of cell cycle arrest in human HeLa cells assessed as >4N cells at 6 nM measured after 24 hrs by propidium iodide staining based flow cytometric analysis analysis relative to control; assay type: functional
HeLa [24] = assay: Induction of cell cycle arrest in human HeLa cells assessed as 4N cells at 1.5 nM measured after 24 hrs by propidium iodide staining based flow cytometric analysis analysis ( Rvb = 17.1%); assay type: functional
HeLa [25] = assay: Induction of apoptosis in human HeLa cells assessed as early apoptotic cells at 6 nM measured after 24 hrs by Annexin V-FITC/7-AAD staining based flow cytometric analysis (reference value: 18.8%); assay type: functional
HeLa [26] = assay: Induction of apoptosis in human HeLa cells assessed as late apoptotic cells at 6 nM measured after 24 hrs by Annexin V-FITC/7-AAD staining based flow cytometric analysis (reference value: 5.22%); assay type: functional
Bos taurus = species on record: Bos taurus; assay: Inhibition of calf brain tubulin polymerization upto 50 uM measured after 40 mins by spectrophotometric analysis; conditions: DDE = dose-dependent effect
HeLa [27] = assay: Induction of apoptosis in human HeLa cells assessed as viable cells at 1.5 nM measured after 24 hrs by Annexin V-FITC/7-AAD staining based flow cytometric analysis (reference value: 75.5%); assay type: functional; conditions: read-out: Activity
HeLa [28] = assay: Induction of apoptosis in human HeLa cells assessed as late apoptotic cells at 1.5 nM measured after 24 hrs by Annexin V-FITC/7-AAD staining based flow cytometric analysis (reference value: 5.22%); assay type: functional
HeLa [29] = assay: Induction of cell cycle arrest in human HeLa cells assessed as < 2N cells at 3 nM measured after 24 hrs by propidium iodide staining based flow cytometric analysis analysis ( Rvb = 9.32%); assay type: functional
HeLa [30] = assay: Induction of cell cycle arrest in human HeLa cells assessed as S-phase at 3 nM measured after 24 hrs by propidium iodide staining based flow cytometric analysis analysis ( Rvb = 23.4%); assay type: functional

Chain of hERG (KCNH2) (Q12809 whole entry): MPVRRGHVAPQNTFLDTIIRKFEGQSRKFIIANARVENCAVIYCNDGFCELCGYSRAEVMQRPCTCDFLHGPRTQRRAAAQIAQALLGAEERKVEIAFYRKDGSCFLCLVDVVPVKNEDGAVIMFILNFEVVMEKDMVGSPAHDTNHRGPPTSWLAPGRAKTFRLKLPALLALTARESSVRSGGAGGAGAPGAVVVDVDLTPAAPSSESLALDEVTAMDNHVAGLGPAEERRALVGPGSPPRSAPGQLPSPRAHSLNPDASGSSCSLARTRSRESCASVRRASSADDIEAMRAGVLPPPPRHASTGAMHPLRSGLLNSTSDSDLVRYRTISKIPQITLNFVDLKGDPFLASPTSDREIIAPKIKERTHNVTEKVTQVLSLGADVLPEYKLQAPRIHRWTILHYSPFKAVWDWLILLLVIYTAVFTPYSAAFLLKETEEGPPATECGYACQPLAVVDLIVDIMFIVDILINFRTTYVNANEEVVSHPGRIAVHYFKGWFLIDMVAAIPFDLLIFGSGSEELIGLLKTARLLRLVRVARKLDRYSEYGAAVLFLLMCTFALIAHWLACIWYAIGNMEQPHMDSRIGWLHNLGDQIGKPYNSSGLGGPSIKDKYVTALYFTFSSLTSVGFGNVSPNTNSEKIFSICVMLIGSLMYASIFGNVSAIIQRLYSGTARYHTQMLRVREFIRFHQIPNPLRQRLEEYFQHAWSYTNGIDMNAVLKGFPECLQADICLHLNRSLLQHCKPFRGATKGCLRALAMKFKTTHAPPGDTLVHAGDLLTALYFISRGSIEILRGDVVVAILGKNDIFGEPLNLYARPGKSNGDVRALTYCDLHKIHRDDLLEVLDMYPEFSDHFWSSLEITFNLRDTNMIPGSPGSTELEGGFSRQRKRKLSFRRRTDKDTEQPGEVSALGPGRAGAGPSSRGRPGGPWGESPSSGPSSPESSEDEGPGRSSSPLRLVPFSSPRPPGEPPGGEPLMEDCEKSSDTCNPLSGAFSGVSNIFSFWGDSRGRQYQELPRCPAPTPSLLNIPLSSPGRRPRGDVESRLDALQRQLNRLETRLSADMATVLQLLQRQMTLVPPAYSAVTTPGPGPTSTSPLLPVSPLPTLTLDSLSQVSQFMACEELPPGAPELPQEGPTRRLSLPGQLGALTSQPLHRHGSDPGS
Chain of Tubulin (Sus scrofa) (P02550 whole entry, looked up): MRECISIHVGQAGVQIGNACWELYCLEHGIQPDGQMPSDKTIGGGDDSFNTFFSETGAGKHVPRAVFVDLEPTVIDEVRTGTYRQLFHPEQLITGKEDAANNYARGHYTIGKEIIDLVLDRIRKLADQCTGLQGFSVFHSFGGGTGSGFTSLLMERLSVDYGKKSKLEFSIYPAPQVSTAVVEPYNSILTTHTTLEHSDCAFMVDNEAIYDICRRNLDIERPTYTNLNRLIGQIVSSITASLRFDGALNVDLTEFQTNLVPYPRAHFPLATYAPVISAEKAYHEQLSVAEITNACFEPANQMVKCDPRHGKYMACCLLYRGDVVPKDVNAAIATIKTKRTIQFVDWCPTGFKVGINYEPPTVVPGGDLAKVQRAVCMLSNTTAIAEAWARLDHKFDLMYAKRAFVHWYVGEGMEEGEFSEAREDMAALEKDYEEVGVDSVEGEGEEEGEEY
Chain of Tubulin (Sus scrofa) (P02554 whole entry, looked up): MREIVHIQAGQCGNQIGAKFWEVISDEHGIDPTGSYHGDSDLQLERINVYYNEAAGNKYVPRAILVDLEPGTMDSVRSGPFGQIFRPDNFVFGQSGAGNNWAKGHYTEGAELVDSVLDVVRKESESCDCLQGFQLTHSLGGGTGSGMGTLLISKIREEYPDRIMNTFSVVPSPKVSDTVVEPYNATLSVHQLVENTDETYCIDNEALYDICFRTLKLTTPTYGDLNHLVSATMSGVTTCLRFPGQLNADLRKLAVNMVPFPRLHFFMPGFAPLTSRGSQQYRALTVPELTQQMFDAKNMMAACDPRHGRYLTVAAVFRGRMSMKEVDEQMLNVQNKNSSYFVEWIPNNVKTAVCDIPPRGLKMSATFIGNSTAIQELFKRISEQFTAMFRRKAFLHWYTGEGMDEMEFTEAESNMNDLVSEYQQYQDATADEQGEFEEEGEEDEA

Which results are given for CCOc1ccc(-c2cncnc2-c2cc(OC)c(OC)c(OC)c2)cc1Cl?
Activity [1]: Non-Toxic; LD50 at 336 h [2]: 1000 mg/kg; Activity [3]: 36%; Activity [4]: Non-Toxic; Activity (HeLa [5]): 1.42 g; Activity [6]: Non-Toxic; Ratio IC50 [7]: 79.2; Cmax [8]: 6220 ng/mL; Activity (HeLa [9]): 24.7%; Activity (HeLa [10]): 71.7%; Activity [11]: Non-Toxic; inhibition at 40 µM (hERG (KCNH2)): 65%; Activity (Tubulin (Sus scrofa)): 39%; Activity [12]: 0.53; Activity [13]: Non-Toxic; Activity (HeLa [14]): 51.5%; Activity [15]: Non-Toxic; Activity (HeLa [16]): 66.4%; CL/F [17]: 84.2 mL/min/kg; Activity [18]: Non-Toxic; Activity (HeLa [19]): 0.59%; Tmax [20]: 15 min; inhibition in vivo at 30 mg/kg (HeLa [21]): 35%

What does the source list for COc1ccc(/C=C\c2cc(OC)c(OC)c(OC)c2)cc1O [COMBRETASTATIN A4]?
Activity (HeLa [22]): 16.5%; Activity (HeLa [23]): 6.35%; Activity (HeLa [24]): 22.5%; Activity (HeLa [25]): 74.2%; Activity (HeLa [26]): 5.94%; inhibition (Bos taurus): Dde; viability at 0.0015 µM (HeLa [27]): 68.9%; Activity (HeLa [28]): 6.68%; Activity (HeLa [29]): 7.77%; Activity (HeLa [30]): 12.1%
